One experiment relates to Bel-7402. The experiment is described as follows: Antiproliferative activity against human Bel-7402 cells after 72 hrs by SRB assay. Type of experiment: functional, cell-based. Conditions: Bel-7402, 72 h.
A further experiment concerns HL-60. The experiment is described as follows: Antiproliferative activity against human HL-60 cells after 72 hrs by MTT assay. It is filed as functional, cell-based. Conditions: HL-60, 72 h. (Formazan colour is commonly taken as a measure of viable cells.)

The term IC50 denotes the concentration needed to halve the response being measured. A lower IC50 goes with greater potency. Take `COc1cc2c3c(c4ccc(OCC#N)cc4c2cc1OC)CN1CCC[C@H]1C3`: the IC50 in the experiment with Bel-7402 came to 200 nM; with HL-60, 301 nM.

For the molecule `COc1cc2c3c(c4ccc(OC(=O)C(C)C)cc4c2cc1OC)CN1CCC[C@@H]1C3`, the IC50 in the experiment on Bel-7402 was found to be 60 nM; in the experiment with HL-60, 106 nM.

Turning to `COc1cc2c3c(c4ccc(OCCOC(=O)[C@@H](N)C(C)C)cc4c2cc1OC)CN1CCC[C@H]1C3`, the IC50 is over 10000 nM in the experiment with Bel-7402 and 7800 nM with HL-60.

As to `COc1cc2c3c(c4ccc(OC(=O)N(C)C)cc4c2cc1OC)CN1CCC[C@@H]1C3`, the IC50 in the experiment with Bel-7402 is 8260 nM; in the experiment with HL-60, 2830 nM.

On to `COc1cc2c3c(c4ccc(OC(=O)N(C)C)cc4c2cc1OC)CN1CCC[C@H]1C3`, for which the IC50 with Bel-7402 and in the experiment on HL-60 was over 10000 nM throughout.

Turning to `COc1cc2c3c(c4ccc(OCCOC(=O)[C@H](C)N)cc4c2cc1OC)CN1CCC[C@H]1C3`, the IC50 with Bel-7402 is 2830 nM; in the experiment on HL-60, 1080 nM.

Consider `COc1cc2c3c(c4ccc(OCCOC(=O)[C@H](C)N)cc4c2cc1OC)CN1CCC[C@@H]1C3`, for which the IC50 stood at 642 nM with Bel-7402 and 494 nM in the experiment on HL-60.

As to `COc1cc2c3c(c4ccc(OC(=O)C5CC5)cc4c2cc1OC)CN1CCC[C@H]1C3`, the IC50 is 877 nM in the experiment with Bel-7402 and 611 nM with HL-60.

`COc1cc2c3c(c4ccc(OC(=O)C5CCCCC5)cc4c2cc1OC)CN1CCC[C@@H]1C3`: the IC50 amounted to 235 nM in the experiment on Bel-7402 and 674 nM in the experiment on HL-60.

Consider `COc1cc2c3c(c4ccc(OC(C)=O)cc4c2cc1OC)CN1CCC[C@H]1C3`, for which the IC50 stood at 1110 nM with Bel-7402 and 756 nM in the experiment on HL-60.

`COc1cc2c3c(c4ccc(OC(=O)c5ccccc5N)cc4c2cc1OC)CN1CCC[C@@H]1C3`: the values for the IC50 in the experiment on Bel-7402 and with HL-60 were 83 nM and 25 nM, respectively.

Take `CC[C@H](C)[C@H](N)C(=O)OCCOc1ccc2c3c(c4cc(OC)c(OC)cc4c2c1)C[C@H]1CCCN1C3`: the IC50 was determined as 584 nM with Bel-7402 and 505 nM with HL-60.

As for `COc1cc2c3c(c4ccc(OCCOC(=O)[C@@H](N)C(C)C)cc4c2cc1OC)CN1CCC[C@@H]1C3`, the IC50 was 974 nM with Bel-7402 and 908 nM in the experiment with HL-60.

Turning to `COc1cc2c3c(c4ccc(OC(=O)c5ccccc5)cc4c2cc1OC)CN1CCC[C@@H]1C3`, the IC50 with Bel-7402 came out at 428 nM; with HL-60, 455 nM.

Take `COc1cc2c3c(c4ccc(OCCOC(=O)[C@@H](N)Cc5c[nH]c6ccccc56)cc4c2cc1OC)CN1CCC[C@@H]1C3`: the IC50 is 248 nM with Bel-7402 and 112 nM in the experiment with HL-60.

Take `COc1cc2c3c(c4ccc(OCCO)cc4c2cc1OC)CN1CCC[C@@H]1C3`: the IC50 with Bel-7402 turned out to be 98 nM; in the experiment with HL-60, 81 nM.

Regarding `COc1cc2c3c(c4ccc(OC(=O)c5cccnc5)cc4c2cc1OC)CN1CCC[C@H]1C3`, the results for the IC50 in the experiment with Bel-7402 and in the experiment with HL-60 were 1770 nM and 762 nM, respectively.

As to `COc1cc2c3c(c4ccc(OC(=O)/C=C/c5ccc6c(c5)OCO6)cc4c2cc1OC)CN1CCC[C@@H]1C3`, the half-maximal inhibitory concentration (IC50) in the experiment on Bel-7402 stood at 185 nM; in the experiment with HL-60 it was 153 nM.

In the case of `COc1cc2c3c(c4ccc(OC(=O)/C=C/C=C/c5ccc6c(c5)OCO6)cc4c2cc1OC)CN1CCC[C@@H]1C3`, the concentration for half-maximal inhibition (IC50) in the experiment with Bel-7402 was 199 nM; with HL-60, 56 nM.

As for `COc1cc2c3c(c4ccc(O)cc4c2cc1OC)CN1CCC[C@H]1C3`, the IC50 in the experiment on Bel-7402 was found to be 292 nM; with HL-60, 50 nM.

For `COc1cc2c3c(c4ccc(OC(=O)C(C)C)cc4c2cc1OC)CN1CCC[C@H]1C3`, the IC50 with Bel-7402 turned out to be 1590 nM; in the experiment on HL-60, 683 nM.

As to `COc1cc2c3c(c4ccc(OC(=O)c5ccccc5)cc4c2cc1OC)CN1CCC[C@H]1C3`, the half-maximal inhibitory concentration (IC50) in the experiment with Bel-7402 stood at 1090 nM; in the experiment on HL-60, 800 nM.

For the molecule `COc1cc2c3c(c4ccc(OCCOC(=O)[C@@H](N)CC(C)C)cc4c2cc1OC)CN1CCC[C@@H]1C3`, the IC50 with Bel-7402 came to 1270 nM; with HL-60, 580 nM.

With `COc1cc2c3c(c4ccc(OC(C)=O)cc4c2cc1OC)CN1CCC[C@@H]1C3`, the IC50 in the experiment with Bel-7402 came out at 228 nM; in the experiment on HL-60, 44 nM.

As for `COc1cc2c3c(c4ccc(O)cc4c2cc1OC)CN1CCC[C@@H]1C3`, the values for the IC50 in the experiment on Bel-7402 and in the experiment on HL-60 were 26 nM and 4 nM, respectively.

Consider `COc1cc2c3c(c4ccc(OC(=O)c5cccs5)cc4c2cc1OC)CN1CCC[C@@H]1C3`, for which the IC50 was 83 nM with Bel-7402 and 472 nM in the experiment on HL-60.

Regarding `CCOC(=O)Oc1ccc2c3c(c4cc(OC)c(OC)cc4c2c1)C[C@H]1CCCN1C3`, the IC50 with Bel-7402 was 105 nM; in the experiment with HL-60, 66 nM.

As to `COc1cc2c3c(c4ccc(OC(=O)C5CC5)cc4c2cc1OC)CN1CCC[C@@H]1C3`, the IC50 in the experiment with Bel-7402 was 765 nM; with HL-60, 181 nM.

Turning to `COc1cc2c3c(c4ccc(OCCOC(=O)[C@@H]5CCCN5)cc4c2cc1OC)CN1CCC[C@@H]1C3`, the IC50 in the experiment on Bel-7402 was 280 nM; in the experiment on HL-60 it was 233 nM.

Consider `CCOC(=O)Oc1ccc2c3c(c4cc(OC)c(OC)cc4c2c1)C[C@@H]1CCCN1C3`, for which the values for the IC50 in the experiment with Bel-7402 and in the experiment on HL-60 were 2080 nM and 379 nM, respectively.

Turning to `COc1cc2c3c(c4ccc(OC(=O)c5cccc6nnsc56)cc4c2cc1OC)CN1CCC[C@@H]1C3`, the IC50 with Bel-7402 turned out to be 173 nM; with HL-60, 227 nM.

Turning to `COc1cc2c3c(c4ccc(OCCOC(=O)[C@@H](N)Cc5ccccc5)cc4c2cc1OC)CN1CCC[C@@H]1C3`, the results for the IC50 in the experiment with Bel-7402 and in the experiment with HL-60 were 669 nM and 568 nM, respectively.

With `COc1cc2c3c(c4ccc(OC(=O)c5cccnc5)cc4c2cc1OC)CN1CCC[C@@H]1C3`, the values for the IC50 in the experiment with Bel-7402 and in the experiment on HL-60 were 133 nM and 179 nM, respectively.

In the case of `COc1cc2c3c(c4ccc(OCCO)cc4c2cc1OC)CN1CCC[C@H]1C3`, the IC50 in the experiment with Bel-7402 stood at 374 nM; in the experiment with HL-60 it was 220 nM.

As to `COc1cc2c3c(c4ccc(OC(=O)C(C)(C)C)cc4c2cc1OC)CN1CCC[C@@H]1C3`, the IC50 in the experiment on Bel-7402 stood at 294 nM; in the experiment on HL-60, 245 nM.

On to `COc1cc2c3c(c4ccc(OC(=O)C(C)(C)C)cc4c2cc1OC)CN1CCC[C@H]1C3`, for which the IC50 came out at 1540 nM in the experiment on Bel-7402 and 219 nM with HL-60.

In the case of `COc1cc2c3c(c4ccc(OC(=O)c5ccco5)cc4c2cc1OC)CN1CCC[C@@H]1C3`, the IC50 is 504 nM with Bel-7402 and 178 nM in the experiment with HL-60.

Take `COc1cc2c3c(c4ccc(OCCOC(=O)[C@@H](N)Cc5ccccc5)cc4c2cc1OC)CN1CCC[C@H]1C3`: the half-maximal inhibitory concentration (IC50) with Bel-7402 stood at 2280 nM; with HL-60, 600 nM.

(Values after ChEMBL document CHEMBL4665661, “Design, synthesis, and biological activity evaluation of (-)-6-O-desmethylantofine analogues as potent anti-cancer agents” (Bioorg Med Chem, 2019).)
